# Measured values reported in article PMC9982591, “Inflammation‐Controlled Anti‐Inflammatory Hydrogels” (Advanced Science, 2022).
# What was measured:
# [1] = biological target: calcineurin (Homo sapiens, UniProt P62937+P63098+Q08209)
# [2] = tested on: extracellular CypA; conditions: cited from earlier work
# [3] = biological target: cyclophilin A (CypA) (Homo sapiens, UniProt P62937); assay: PPIase inhibition; assay type: biochemical; conditions: PPIase assay, Table S2
# Protocol: From the activity against the inhibitor concentrations, the IC50 and the K i value were determined with nonlinear curve fitting according to the models of Morrison^[ [41] ^] and Murphy.^[ [42] ^]
# [4] = biological target: T1, human neutrophil elastase (Homo sapiens, UniProt P08246); assay: Enzymatic cleavage of elastase-responsive peptide and PEG-AAPV conjugate; assay type: biochemical; conditions: 7 mmol/L AAPV peptide, 20 nmol/L human neutrophil elastase, PBS pH 7.4, 37 °C, analytical HPLC
# T1 construct: purchased Merck/Calbiochem
# T1 sequence (P08246 30-267): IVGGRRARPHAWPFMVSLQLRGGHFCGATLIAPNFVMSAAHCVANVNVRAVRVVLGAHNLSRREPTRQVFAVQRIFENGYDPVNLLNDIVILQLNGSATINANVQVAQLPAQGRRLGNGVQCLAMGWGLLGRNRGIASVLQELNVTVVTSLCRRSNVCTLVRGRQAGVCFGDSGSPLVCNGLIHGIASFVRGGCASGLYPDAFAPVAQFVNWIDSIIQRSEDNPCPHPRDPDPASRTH
# Protocol: starPEG-peptide conjugate with full starPEG arm saturation by the leukocyte elastas e responsive AAPV peptide was added to the reaction solution in 4-fold excess, to finally result […]
# The reaction mixture was directly used for hydrogel format ion.
# S1.3. Supplement –Basic analysis
# Enzymatic clea vage of el astase- responsive peptide and PEG-AAPV conjug ate To analyze leuko cyte elastase mediated hydrolysis of the responsive peptide and the corresponding conjugate, 7 mmol L -1 AAPV peptide or 0.7 mmol L -1 starPEG-AAPV conjugate w er e incub ated with 20 nmol L -1 human neutrophil el astase in PBS, pH 7.4 at 37°C.
# The enzymatic reaction was evaluated after indicated timepoints by analytical HPLC, followed by integral anal ysis of the peak signals for educt and cleavage products.
# Inhibition of leukocyte el astaseby heparin
# To evaluate the influence of the hydrogel component heparin on the activity of leukocyte elastase, samples with heparin sodium salt concentrations of 0.001- 1 000µg mL -1 were prepared in 50mmol L -1 Tris-HCl pH 7.4 supplemented with 100mmol L -1 NaCl and 0.1% BSA and pre-incubated with 10nmol L -1 leukocyte elastase for 5 min. […]
# [5] = tested on: complement system; assay: Complement activation in whole blood with zymosan (C5a ELISA); assay type: cell-based, human; conditions: zymosan 10 µg/mL, 30 min, 37 °C, 4W9A alone and conjugated to cleavage fragment (Figure S4, 10 µmol/L, n = 3)
# Protocol: Figure 3 Cleavage of inflammation‐responsive hydrogels in an in vitro inflammation model and assessment of the anti‐inflammatory effects of the released drugs. A) For hydrogel cleavage, isolated polymorphonuclear granulocytes (PMN) are activated with complement‐opsonized zymosan (OPZ) in cell culture media and incubated with the hydrogel over 2 h at 37 °C. The cell‐free supernatant containing the released bioactive is used to test the anti‐inflammatory effect in the corresponding system. B) 4W9A: Measurement of complement activation in whole blood activated with zymosan. C) PMX53: Activation of isolated PMN by zymosan activated serum, measured as CD11b expression (*P < 0.05, **P < 0.01 in t‐test).
# The amount of Atto488 released from the hydrogel as a model drug was determined by fluorescence measurement at λ ex. = 485 nm/λ em. = 535 nm against an Atto488 standard. […] Cell activation was determined by flow cytometry using CD11b‐VioBlue staining (Biolegend) for isolated granulocytes and additionally CD14‐APC and CD41a‐FITC (both BD Biosciences, New Jersey, USA) for whole blood samples. Leukocyte elastase and C5a concentrations were determined using the commercial ELISA kits Hycult human elastase ELISA (Hycult Biotech, Uden, Netherlands) and C5a micro ELISA (DRG, Marburg, Germany) according to the manufactures instructions.
# [6] = tested on: leukocyte; set-up: method as in PMID 10354404; conditions: specific for C5aR1; cited from earlier work
# [7] = biological target: C5a receptor (C5aR1 or CD88); conditions: C5a receptor inhibitor; read-out: IC50 of PMX53; cited from earlier work
# From the text: PMX53 is derived from the C‐terminus of the C5a fragment. Therefore, N‐terminal sequence extension by a glycine spacer and a cysteine group appeared possible without loss of activity.^[ [19], [30] ^] (Table S1, Supporting Information). The obtained peptide was linked to the elastase‐responsive hydrogel platform as an anti‐inflammatory feedback control system. The low IC50 concentration (IC50 = 20 nmol L^−1[ [19] ^]) allowed for a low functionalization degree at the hydrogel of only 2% of the starPEG‐AAPV‐arms.
# [8] = tested on: elastase; conditions: cited from earlier work
# From the text: (§1) The heparin component of the hydrogel matrix provides favorable additional anti‐inflammatory properties and interacts with the cleaving enzyme in different ways: Elastase has an anion binding site, which mediates binding to the DNA in neutrophil extracellular traps (NETs), to heparin and heparan sulfates, and also leads to accumulation at the hydrogel.^[ [21] ^] […] Additionally, direct inhibition of elastase acti ...
# [9] = tested on: α1‐antitrypsin; conditions: cited from earlier work
# From the text: as §1
# [10] = tested on: human leukocyte elastase; assay: Inhibition of leukocyte elastase by heparin; assay type: biochemical; conditions: U-shaped, heparin 0.01–5 µg/mL (≈0.002–1 U/mL); 10 nmol/L elastase, 250 µmol/L MeOSuc-Ala-Ala-Pro-Val-pNA, Tris-HCl pH 7.4, 100 mmol/L NaCl, 0.1% BSA, 5 min pre-incubation, 37 °C, 30 min, 405 nm; normalized to control without heparin; mean ± SD of n=2
# Protocol: Figure S2: Inhibition of leukocyte elastase by heparin. A concentration of 10 nmol L-1 human leukocyte elastase was used to cleave 250 µmol L -1 chromogenic substrate in the presence of different heparin concentrations. The substrate cleavage was monitored photometrically at a wavelength of 405nm by the release of p- nitroaniline from the chromogenic substrate methoxysuccinyl-Ala-Al a-Pro-V al-pNA over 30 min. Values were normalized to a cont rol sample without heparin; mean ± SD of n=2.
# (1 picture or pasted object on this page, not shown here) […]
# The enzymatic reaction was evaluated after indicated timepoints by analytical HPLC, followed by integral anal ysis of the peak signals for educt and cleavage products. […]
# To evaluate the influence of the hydrogel component heparin on the activity of leukocyte elastase, samples with heparin sodium salt concentrations of 0.001- 1 000µg mL -1 were prepared in 50mmol L -1 Tris-HCl pH 7.4 supplemented with 100mmol L -1 NaCl and 0.1% BSA and pre-incubated with 10nmol L -1 leukocyte elastase for 5 min. Subsequently, the cleavage of 250 µmol L-1 chromogenic substrate MeOSuc-Ala-Ala-Pro-V al-pNA by leukocyte elastase in the presence of the different heparin concentrations was measured as reaction kinetic at 37°C for 30min using the Spark TM 10M multimode microplate reader (Tecan) at 405 nm and c ompared to a cont rol without heparin.
# calcineurin, sequence (P63098 whole entry, other chains not shown): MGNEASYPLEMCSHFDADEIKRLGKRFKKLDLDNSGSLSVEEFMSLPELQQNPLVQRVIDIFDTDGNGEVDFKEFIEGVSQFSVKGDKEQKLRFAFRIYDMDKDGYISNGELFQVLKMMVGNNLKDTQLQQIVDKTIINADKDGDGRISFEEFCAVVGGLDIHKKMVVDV
# calcineurin, sequence (P62937 whole entry, other chains not shown): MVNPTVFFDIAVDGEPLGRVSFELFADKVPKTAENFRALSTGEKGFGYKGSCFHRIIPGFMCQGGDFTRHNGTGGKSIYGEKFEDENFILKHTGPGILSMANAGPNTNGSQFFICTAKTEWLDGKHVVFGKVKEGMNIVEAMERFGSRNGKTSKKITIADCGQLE
# cyclophilin A (CypA), sequence (P62937 whole entry): as the sequence (P62937 whole entry, other chains not shown) above
compound,measurement,setting,value
CC[C@@H]1NC(=O)[C@H]([C@H](O)[C@H](C)Cc2nc3cc(C(=O)O)ccc3[nH]2)N(C)C(=O)[C@H](C(C)C)N(C)C(=O)[C@H](CC(C)C)N(C)C(=O)[C@H](CC(C)C)N(C)C(=O)[C@@H](C)NC(=O)[C@H](C)NC(=O)[C@H](CC(C)C)N(C)C(=O)[C@H](C(C)C)NC(=O)[C@H](CC(C)C)N(C)C(=O)CN(C)C1=O [MM284],calcineurin: concentration up to which no inhibition was found,[1],≥ 15 µmol/L
same,extracellular CypA inhibition / immunosuppression,[2],"inhibits extracellular CypA, providing anti‐inflammatory without immunosuppressive activity"
CC[C@@H]1NC(=O)[C@H]([C@H](O)[C@H](C)Cc2nc3cc(C(=O)N[C@H](CCC(=O)O)C(=O)N[C@H](CCC(=O)O)C(=O)N[C@H](CCC(=O)O)C(=O)N[C@H](CCC(=O)O)C(=O)N[C@H](CCC(=O)O)C(=O)N[C@H](CCC(=O)O)C(=O)NCC(=O)N[C@@H](CCCCN)C(=O)NCC(=O)N[C@@H](C)C(=O)N[C@@H](C)C(=O)N4CCC[C@H]4C(=O)N[C@H](C(=O)NCC(=O)NCC(=O)N[C@@H](CS)C(N)=O)C(C)C)ccc3[nH]2)N(C)C(=O)[C@H](C(C)C)N(C)C(=O)[C@H](CC(C)C)N(C)C(=O)[C@H](CC(C)C)N(C)C(=O)[C@@H](C)NC(=O)[C@H](C)NC(=O)[C@H](CC(C)C)N(C)C(=O)[C@H](C(C)C)NC(=O)[C@H](CC(C)C)N(C)C(=O)CN(C)C1=O [MM623],calcineurin: concentration up to which no inhibition was found,[1],≥ 20 µmol/L
same,CypA inhibition compared with MM284,[3],comparable to MM284
H2N-GWGAAPV-↑-RGGCG-CONH2,cleavage rate of the free peptide by elastase,[4],0.36 s⁻¹
Mal-l[CVWQDWGAHRC]-T-CONH2 (disulfide) [4W9A],inhibitor concentration that should be exceeded for complement inhibition,[5],> 2 µmol/L
PMX53,"effect on leukocyte stimulation by cytokines, leukotriene B4, endotoxins, or formylated peptides",[6],"has no effect on leukocyte stimulation by cytokines, leukotriene B4, endotoxins, or formylated peptides"
same,IC50,[7],20 nM
heparin,elastase activity inhibition by heparin binding,[8],direct inhibition of elastase activity by heparin binding has been reported
same,α1-antitrypsin activity,[9],decreases the activity of α1‐antitrypsin
same,suppression of elastase activity to (residual activity),[10],about 50%
